# Laboratory results taken from patent publication US7435837B2, “Dihydrobenzofuranyl alkanamine derivatives and methods for using same” (Wyeth, priority 2003, dated 2008).
# What was measured:
# [1] = target: T1, human 5-hydroxytryptamine-2C (h5-HT2C) receptor (Homo sapiens, UniProt P28335); assay: [125I]DOI binding to membranes of CHO cells expressing the human 5-HT2C receptor; conditions: [125I]DOI radioligand, CHO cell membranes, room temperature 60 min; read-out: 5-HT2C Affinity Ki
# T1 construct: expressed in transfected cells; host or cells: CHO (Chinese Hamster Ovary) cells; membranes
# T1 sequence (P28335 33-458): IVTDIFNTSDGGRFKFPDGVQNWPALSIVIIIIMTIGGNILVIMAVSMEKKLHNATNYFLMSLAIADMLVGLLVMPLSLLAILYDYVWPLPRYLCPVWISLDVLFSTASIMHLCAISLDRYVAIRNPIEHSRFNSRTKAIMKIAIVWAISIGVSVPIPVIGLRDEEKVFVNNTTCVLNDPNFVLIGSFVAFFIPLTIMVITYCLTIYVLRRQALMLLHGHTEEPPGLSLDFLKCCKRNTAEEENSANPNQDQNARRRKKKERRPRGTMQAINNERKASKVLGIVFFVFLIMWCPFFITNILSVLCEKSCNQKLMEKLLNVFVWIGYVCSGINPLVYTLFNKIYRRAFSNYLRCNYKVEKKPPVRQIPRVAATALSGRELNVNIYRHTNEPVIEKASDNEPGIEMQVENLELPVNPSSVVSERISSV
# human 5-HT2C receptor = target: T2, human 5-HT2C receptor (Homo sapiens, UniProt P28335); assay: 5-HT2C receptor-stimulated calcium mobilization (FLIPR) in CHO cells; format: cell-based; conditions: for EC50: calcium mobilization, CHO cells stably expressing human 5-HT2C, read-out: 5-HT2C Function EC50; for 5-HT2C Function Emax (%) / Emax: percentage of the response observed with a maximally effective concentration of 5-HT; for Emax: CHO, read-out: 5-HT2C Function Emax (%);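 for all read-outs here: Fluo-3-AM fluorescence read on FLIPR every 1 s, agonist added after 10 baseline reads, response taken as peak minus lowest raw fluorescence count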
# T2 sequence (P28335 33-458): T1 sequence (P28335 33-458)
Compound,Ki [1] [nM],EC50 (human 5-HT2C receptor) [nM],5-HT2C Function Emax (%) (human 5-HT2C receptor),Emax (human 5-HT2C receptor) [%]
"Cc1ccc(-c2cccc3c2OC(CN)C3)cc1 (single isomer, unassigned; (-)) [Example 72, (−)-1-[7-(4-methylphenyl)-2,3-dihydro-1-benzofuran-2-yl]methanamine]",33,511,85,
"NCC1Cc2cc(F)cc(-c3cccnc3)c2O1 (single isomer, unassigned; (-)) [Example 207, (−)-[(5-fluoro-7-pyridin-3-yl-2,3-dihydro-1-benzofuran-2-yl)methyl]amine]",128,112,,80
"Cc1ccc(-c2cccc3c2OC(CN)C3)cc1 (racemic) [Example 70, (±)-1-[7-(4-methylphenyl)-2,3-dihydro-1-benzofuran-2-yl]methanamine]",2,22,,100
"CC(C)c1ccccc1-c1cccc2c1OC(CN)C2 (racemic) [Example 61, (±)-[7-(2-isopropylphenyl)-2,3-dihydro-1-benzofuran-2-yl]methylamine]",37,1090,,30
"CNCC1Cc2cc(C)cc(-c3ccccc3F)c2O1 (racemic) [Example 475, (±)-{[7-(2-fluorophenyl)-5-methyl-2,3-dihydro-1-benzofuran-2-yl]methyl}methylamine]",3.2,25,,80
"COc1ccc(-c2cc(F)cc3c2OC(CN)C3)c(OC)c1 (racemic) [Example 219, (±)-{[7-(2,4-dimethoxyphenyl)-5-fluoro-2,3-dihydro-1-benzofuran-2-yl]methyl}amine]",7,79,,90
"COc1ccccc1-c1cccc2c1OC(CN)C2 (single isomer, unassigned; (+)) [Example 128, (+)-1-[7-(2-methoxyphenyl)-2,3-dihydro-1-benzofuran-2-yl]methanamine]",41,24,,70
"NCC1Cc2cccc(-c3ccc(F)cc3F)c2O1 (single isomer, unassigned; (-)) [Example 148, (−)-1-[7-(2,4-difluorophenyl)-2,3-dihydro-1-benzofuran-2-yl]methanamine]",12,290,70,
"COc1cc2c(c(-c3cccc(F)c3F)c1)OC(CN)C2 (racemic) [Example 361, (±)-{[7-(2,3-difluorophenyl)-5-methoxy-2,3-dihydro-1-benzofuran-2-yl]methyl}amine]",33,73,,90
"Cc1cc(Cl)ccc1-c1cccc2c1OC(CN)C2 (single isomer, unassigned; (-)) [Example 159, (−)-{[7-(4-chloro-2-methylphenyl)-2,3-dihydro-1-benzofuran-2-yl]methyl}amine]",12,636,80,
"Cc1c(Cl)cc(C(C)C)c2c1CC(CN)O2 (racemic) [Example 21, (±)-1-(5-chloro-7-isopropyl-4-methyl-2,3-dihydro-1-benzofuran-2-yl)methanamine]",9,86,,85
"CNCC1Cc2cccc(-c3ccccc3F)c2O1 (racemic) [Example 412, (±)-[(N-methyl-1-[7-(2-fluorophenyl)-2,3-dihydro-1-benzofuran-2-yl]methanamine]",5.3,34,,90
"CNCC1Cc2cccc(-c3cccc(OC)c3)c2O1 (racemic) [Example 417, (±)-[(N-methyl-1-[7-(3-methoxyphenyl)-2,3-dihydro-1-benzofuran-2-yl]methanamine]",3.7,183,,60
"CNCC1Cc2cccc(-c3ccc(F)cc3)c2O1 (racemic) [Example 419, (±)-[(N-methyl-1-[7-(4-fluorophenyl)-2,3-dihydro-1-benzofuran-2-yl]methanamine]",3.8,1360,,80
"CNCC1Cc2cc(C)cc(-c3ccccc3OC)c2O1 (racemic) [Example 477, (±)-{[7-(2-methoxyphenyl)-5-methyl-2,3-dihydro-1-benzofuran-2-yl]methyl}methylamine]",6.7,9,,80

# The next molecules have a lower Ki [1] than those just listed; values first:
Ki [1] [nM],EC50 (human 5-HT2C receptor) [nM],5-HT2C Function Emax (%) (human 5-HT2C receptor),Emax (human 5-HT2C receptor) [%],Compound
0.2,0.32,100,,"NCC1Cc2cc(F)cc(-c3ccccc3Cl)c2O1 (single isomer, unassigned; (+)) [Example 101, (+)-1-[7-(2-chlorophenyl)-5-fluoro-2,3-dihydro-1-benzofuran-2-yl]methanamine]"
1,1,,100,"NCC1Cc2cccc(-c3ccccc3)c2O1 (single isomer, unassigned; (+)) [Example 37]"
1.5,3,,95,"Cc1cccc(C)c1-c1cc(F)cc2c1OC(CN)C2 (racemic) [Example 227, (±)-{[7-(2,6-dimethylphenyl)-5-fluoro-2,3-dihydro-1-benzofuran-2-yl]methyl}amine]"
1,93,,100,"NCC1Cc2cc(F)cc(-c3ccccc3F)c2O1 (racemic) [Example 107, (±)-1-[5-fluoro-7-(2-fluorophenyl)-2,3-dihydro-1-benzofuran-2-yl]methanamine]"
0.3,7,90,,"CNCC1Cc2cc(F)cc(-c3c(C)cccc3C)c2O1 (single isomer, unassigned; (-)) [Example 559, (−)-{[7-(2,6-dimethylphenyl)-5-fluoro-2,3-dihydro-1-benzofuran-2-yl]methyl}methylamine]"
0.4,5.4,,100,"Cc1ccccc1-c1cccc2c1OC(CN)C2 (racemic) [Example 47, (±)-1-[7-(2-methylphenyl)-2,3-dihydro-1-benzofuran-2-yl]methanamine]"
0.31,137,80,,"CNCC1Cc2cc(F)cc(-c3cc(Cl)ccc3Cl)c2O1 (single isomer, unassigned; (-)) [Example 451, (−)-{[5-fluoro-7-(2,5-dichlorophenyl)-2,3-dihydro-1-benzofuran-2-yl]methyl}methylamine]"
0.38,8,,90,"NCC1Cc2cc(Cl)cc(-c3ccc(Cl)cc3Cl)c2O1 (racemic) [Example 251, (±)-{[5-chloro-7-(2,4-dichlorophenyl)-2,3-dihydro-1-benzofuran-2-yl]methyl}amine]"
1,1.4,,100,"Cc1ccc(-c2cccc3c2OC(CN)C3)cc1 (single isomer, unassigned; (+)) [Example 71, (+)-1-[7-(4-methylphenyl)-2,3-dihydro-1-benzofuran-2-yl]methanamine]"
0.25,50,,90,"NCC1Cc2cc(Cl)cc(-c3ccoc3)c2O1 (racemic) [Example 243, (±)-{[5-chloro-7-(3-furyl)-2,3-dihydro-1-benzofuran-2-yl]methyl}amine]"
0.56,0.73,,100,"Cc1cc2c(c(-c3ccc(Cl)cc3Cl)c1)OC(CN)C2 (racemic) [Example 297, (±)-{[7-(2,4-dichlorophenyl)-5-methyl-2,3-dihydro-1-benzofuran-2-yl]methyl}amine]"
